For 79 molecules, RP-LC retention time results are on record in the METLIN SMRT retention time set (Domingo-Almenara et al. 2019).

A short description of this series: gradient 5% acetonitrile 3 min, to 50% in 2 min, to 85% in 15 min, held 3 min, 100 µL/min. Particulars: column: Zorbax Extend-C18 2.1 x 50 mm; eluents: water / acetonitrile, 0.1% formic acid. Summed up: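 Standards, all pure, were combined into mixtures of ~100 molecules and run at 100 μL/min on a Zorbax Extend-C18 column (2.1 × 50 mm, 1.8 μm) with water and acetonitrile, each containing 0.1% formic acid. A coupled quadrupole time-of-flight mass spectrometer operated in positive and negative ionization mode. Retention time values come from computationally picked adduct peaks, each inspected manually.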
As to `Cc1ccc(S(=O)(=O)[C@H]2CS(=O)(=O)C[C@@H]2N2CCN(c3ccccc3)CC2)cc1`, the RP-LC retention time was determined as 920 s. The value for `O=C(c1ccccc1Cl)N1CCN(c2cc(-c3ccc(Cl)cc3)[nH]n2)CC1` was 854 s. The value for `COc1ccc2ncc(S(=O)(=O)c3ccccc3)c(Nc3ccc4c(c3)OCCO4)c2c1` was 855 s; that for `CN1C(=O)c2cccnc2Sc2cc(NC(=O)c3c(F)cccc3Cl)ccc21` was 783 s; that for `Cc1cc(C)cc(NC(=O)C(=O)NCC(c2ccc3c(c2)OCO3)N2CCOCC2)c1` (centres undefined) was 613 s. The value for `O=C(NCC1CCCO1)C1CCCN(c2ccnc(-c3ccccc3)n2)C1` (centres undefined) was 571 s. In turn, `Cc1cccc(NC(=O)Nc2nccn(-c3cccc(Cl)c3)c2=O)c1` displayed an RP-LC retention time of 1040 s.

Turning to `COc1ccc(NC(=O)C2CCCN(c3nccnc3Sc3ccccc3)C2)cc1` (centres undefined), the RP-LC retention time is 1030 s. The value for `Cc1nn(C(C)C(=O)NCCc2ccco2)c(=O)c2nn(-c3ccccc3)c(C)c12` (centres undefined) was 788 s; that for `O=C(c1ccc2c(=O)n(Cc3ccccc3)c(N3CCCC3)nc2c1)N1CCN(c2ccccn2)CC1` was 655 s. Then `COc1cc(NC(=O)N2CCC(CN3CCc4ccccc4C3)CC2)cc(OC)c1OC`, with 612 s. On to `CCN(C(=O)C1CCCN(S(=O)(=O)c2cc(-c3noc(C)n3)cs2)C1)c1ccccc1` (centres undefined), for which the RP-LC retention time was 983 s. Then `CCC(C)NC(=O)c1cccn1Cc1noc(-c2ccc(Cl)cc2)n1` (centres undefined), with 1080 s. For the molecule `Cc1cccc(NC(=O)Nc2nccn(-c3ccc(Br)cc3)c2=O)c1`, the RP-LC retention time was 1050 s. Molecule `O=C(NCc1ccc(F)cc1)C1CCN(S(=O)(=O)c2ccc(-c3noc(C4CC4)n3)cc2)CC1` showed an RP-LC retention time of 1020 s. As to `O=C(Nc1ccc(F)c(F)c1)C1CCN(c2ccc(=O)n(-c3ccc(F)cc3)n2)CC1`, the RP-LC retention time stood at 822 s. Then `CCc1nc(-c2csc(S(=O)(=O)N3CCCC(C(=O)Nc4ccc(Cl)cn4)C3)c2)no1` (centres undefined), with 1080 s. Then `CCCCn1nnc(NCc2ccc(-c3cc(Cl)ccc3Cl)o2)n1`, with 1220 s; and `CCCn1c(=O)c2cc(C(=O)Nc3cccc(C)c3)nn2c2ccccc21`, with 1080 s; and `CNC(=O)N1CCCC(c2nc(C(C)C)no2)CCNC(=O)CC1` (centres undefined), with 606 s. Then `c1ccc(-c2nc(CC3CCCNC3)no2)cc1` (centres undefined), with 609 s. With `O=C(NCCN1CCOCC1)C1CN(C(=O)c2ccccc2)CC12CCCCC2` (centres undefined), the RP-LC retention time worked out at 605 s.

On to `CN1c2cc(F)ccc2C(=O)NC12CCN(C(=O)NCc1ccc(F)cc1)CC2`, for which the RP-LC retention time is 754 s. Then `CCn1c(=O)c(N2CCCC(C(=O)N3CCN(c4cccc(Cl)c4)CC3)C2)nc2ccccc21` (centres undefined), with 1240 s; and `CCc1nc(-c2cccc(-c3noc(COc4cccc(C)c4)n3)c2)cs1`, with 1390 s; and `CS(=O)(=O)N1CCC(C(=O)N2CCC3(CC2)OCCS3)CC1`, with 625 s. Then `Cc1nnc2n1CCC(N(C)C(=O)c1ccsc1)CC2` (centres undefined), with 566 s. Then `CC(=O)c1cccc(NC(=O)Cn2cccc2-c2nc(-c3ccccc3)cs2)c1`, with 1030 s.

As for `Cc1ccsc1C(=O)NC1CCN(c2cc(-c3ccccc3)[nH]n2)C1` (centres undefined), the RP-LC retention time was found to be 704 s.

The molecule `COc1ccc(CNC(=S)Nc2ccc3nc(N4CCN(C)CC4)cc(C)c3c2)c(OC)c1` returned an RP-LC retention time of 600 s.

`CCc1nn2c(CNC(=O)c3ccc(C)cc3)c(-c3ccccc3)nc2s1` came in with an RP-LC retention time of 950 s.

`Cc1ccccc1Oc1nccnc1N1CCCC(C(=O)NCc2ccc(Br)cc2)C1` (centres undefined) gave an RP-LC retention time of 960 s.

Molecule `COc1ccccc1N1CCN(C(=O)c2cc(C3CC3)[nH]n2)CC1` registered an RP-LC retention time of 699 s.

Molecule `Cc1cc(C)n(Cc2c(C(=O)NCC3Cn4cccc4C(=O)N3C)noc2C)n1` (centres undefined) displayed an RP-LC retention time of 688 s.

In turn, `O=C(Cn1ncc2c(N3CCN(c4ccccn4)CC3)ncnc21)Nc1ccccc1Cl` yielded an RP-LC retention time of 564 s. The value for `CC1CCC(NC(=O)C2CCN(S(=O)(=O)c3cc(C(=O)N(C)C)cs3)CC2)CC1` (centres undefined) was 797 s. Turning to `CC(C)(C)OC(=O)N1CCN(c2ncc(S(=O)(=O)c3ccc(Cl)cc3)c(N)n2)CC1`, the RP-LC retention time was 1060 s. In the case of `Cc1ccccc1NC(=O)N1C[C@@H](F)C[C@H]1C(=O)N1CCc2ccccc2C1`, the RP-LC retention time came out at 780 s. Then `Cc1ccc(C(=O)NC2CCN(c3cc(-c4ccc(Cl)cc4)[nH]n3)C2)cc1` (centres undefined), with 821 s; and `CCOC(=O)c1c(C)oc2nc(C)nc(NCCCN3CCN(c4ccccc4)CC3)c12`, with 826 s; and `O=C(NC1CCCC1)c1ccc2ccnc(N3CCN(c4ccc(Cl)cc4)CC3)c2c1`, with 890 s. `Cc1nc(-c2cn(C)c3ncccc23)sc1C(=O)Nc1cc(F)ccc1F` came in with an RP-LC retention time of 944 s. The value for `Cc1cn(C)nc1C(=O)Nc1nnc(-c2ccco2)o1` was 622 s; that for `CCn1cnc2cc(CNC(=O)Cc3ccsc3)ccc21` was 578 s; that for `COc1ccccc1NC(=O)Cn1nc2cc(C)nc(-c3ccccc3)n2c1=O` was 819 s. Molecule `Cc1ccc(-n2c(=O)c3sccc3n(Cc3nc(-c4cccc(C)c4)no3)c2=O)cc1` had an RP-LC retention time of 1060 s.

Consider `COc1ccc(NC(=O)c2cnc3c(c2)c(=O)n(C)c(=O)n3-c2ccccc2)cc1F`, for which the RP-LC retention time worked out at 858 s.

Consider `O=C(NC1CCc2ccccc21)C1CCCN(c2ncnc3c2oc2ccccc23)C1` (centres undefined), for which the RP-LC retention time was determined as 816 s. As for `Cc1cccc(C2CCCN2C(=O)c2nc3nc(C)cc(C(F)F)n3n2)c1` (centres undefined), the RP-LC retention time was found to be 841 s.

In turn, `Cc1cccc(-c2ncccc2CNS(=O)(=O)Cc2ccccc2)c1` had an RP-LC retention time of 684 s. The value for `CCc1ccc(CNC(=O)c2cn(CC)nc2S(=O)(=O)N2CCC(C)CC2)cc1` was 1180 s. Regarding `COc1ccc(NC(=O)CCC2CCCN(c3cc(NC4CC4)ncn3)C2)cc1OC` (centres undefined), the RP-LC retention time was 645 s. The value for `Cc1nn(C)cc1CN1C[C@@H]2C(=O)N(Cc3ccc4c(c3)OCO4)C(=O)[C@@H]2C1` was 601 s.

The molecule `O=C(NCCc1ccccn1)c1cccc(N2CCNC(c3ccccc3)C2)n1` (centres undefined) showed an RP-LC retention time of 554 s.

Consider `CCCCNC(=O)CN1C(=O)C2CCCCN2c2ccc(S(=O)(=O)N3CCCC3)cc21` (centres undefined), for which the RP-LC retention time amounted to 873 s. `O=C(c1ccc2c(c1)OCO2)N1CCCN(c2nnc3ccc(Cl)cn23)CC1` yielded an RP-LC retention time of 591 s.

In the case of `CCN(CC)CCn1c(C)c(C)c2c1ncn1nc(-c3cccnc3)nc21`, the RP-LC retention time is 590 s. The value for `Cc1cccc(-c2nc(C3CCN(S(=O)(=O)c4ccc(F)cc4)CC3)no2)c1` was 1110 s; that for `O=C(Nc1ccc2c(c1)OCCO2)N1CCCCCC1CN1CCOCC1` (centres undefined) was 611 s.

Take `CCCn1nnc2cc(S(=O)(=O)N3CCCC(C(=O)N4CCCCCC4)C3)ccc21` (centres undefined): the RP-LC retention time was determined as 890 s. The value for `CCc1ccc(CNC(=O)c2cn3ccccc3n2)cc1` was 757 s; that for `CC(C(=O)NCCCN1CCOCC1)n1c2ccccc2c2cnn(C)c(=O)c21` (centres undefined) was 599 s; that for `CCc1cnc2c(c1SCC(=O)N1CCCC1)c(=O)n(C)c(=O)n2C` was 732 s.

`Cc1cc(-c2nnc(NC(=O)c3ccc4c(c3)OCCO4)o2)n(C)n1` yielded an RP-LC retention time of 655 s. Regarding `CC(=O)N1CCC(C(=O)NCc2c(-c3ccccc3)nc3sc(C)nn23)CC1`, the RP-LC retention time is 729 s.

In turn, `c1ccc2c(c1)-c1cccc3cncc-2c13` had an RP-LC retention time of 897 s.

`CCC(C)NC(=O)Cc1c[nH]c2ncccc12` (centres undefined) returned an RP-LC retention time of 562 s. Consider `CN(C)C(=O)c1ccc2c(c1)nnn2CCNC(=O)Nc1ccccc1Br`, for which the RP-LC retention time worked out at 675 s. `COc1ccc(-c2noc(CC3CCN(C(=O)c4cncc(Br)c4)CC3)n2)cc1` came in with an RP-LC retention time of 909 s.

The molecule `COc1ccc(-c2cc(C(=O)N3CCCC3c3cc(C)on3)on2)cc1` (centres undefined) displayed an RP-LC retention time of 865 s. `O=C(Nc1cnn(-c2ncc(N3CCCCC3)cn2)c1)c1ccccc1C(F)(F)F` yielded an RP-LC retention time of 865 s.

`Cc1nc(-c2cn(C)c3ncccc23)sc1C(=O)Nc1ccc(F)cc1Cl` yielded an RP-LC retention time of 1050 s. `Cc1cccc(N2C(=O)CN(S(C)(=O)=O)CC2(C)C(=O)NC2CCCCCCC2)c1C` (centres undefined) came in with an RP-LC retention time of 951 s. As to `CCOc1ccc(CC(=O)NC(CC(C)C)C(=O)Nc2nc3ccccc3[nH]2)cc1OCC` (centres undefined), the RP-LC retention time was found to be 758 s.

`O=C(NC1CC1)c1c2c(nc3ccc(F)cc13)CCCC2`: the RP-LC retention time turned out to be 610 s.

`COc1ccc(CC(=O)NC2CCN(c3cc(-c4ccc(Cl)cc4)[nH]n3)C2)cc1` (centres undefined) showed an RP-LC retention time of 762 s. The value for `O=c1c2cc(-c3ccc(Br)cc3)nn2cnn1Cc1nc(-c2ccccc2)no1` was 1190 s. The value for `O=C(Cc1csc(NC(=O)C2CCC(=O)N2)n1)NCCC1=CCCCC1` (centres undefined) was 643 s; that for `CC(C)CN1C(=O)c2cccn2CC1C(=O)NCCN1CCCC1` (centres undefined) was 572 s.
